# Reference: patent EP0642531B1, “MONOMER AND DIMER PEPTIDES, UTILIZATION AS CYTOPROTECTOR AGENTS AND PREPARATION METHOD” (INSTITUT DES VAISSEAUX ET DU SANG, priority 1992, dated 1997)
# Where no end group is shown, it is not given here.
# Tests used:
# [1] = system: mégacaryocytopoièse humaine; conditions: cited from earlier work
# [2] = system: CAM de poulet; conditions: inhibition of angiogenesis in chicken CAM; cited from earlier work
# [3] = system: cellules HEL; conditions: prior-art comparators; cited from earlier work
# [4] = system: mégacaryocytopoïèse in vivo; assay: Megakaryocytopoiesis in vivo in normal mice (marrow and blood counts); conditions: souris Balb/c, 40 µg/kg s.c. twice daily for 4 days, sampled day 2 after last injection; mean ± SEM
# Description: L'effet du dodécapeptide de l'exemple 1 sur la mégacaryocytopoïèse in vivo a été testé sur des souris normales selon une méthode décrite par HAN et al., dans l'article C.R. Acad. Sci. Paris, (1991), 313, Série III, 553-558 précité. Chaque groupe contient 5-10 souris Balb/c. Le peptide est injecté par voie sous-cutanée deux fois par jour pendant 4 jours aux concentrations de 1 µg et 5 µg par souris pour chaque administration. Les échantillons de moëlle et/ou de sang ont été prélevés au jour J2 qui suit la dernière injection.
# Les souris ont été tuées par dislocation cervicale. Les cellules médullaires ont été obtenues à partir des fémurs et le sang a été obtenu par ponction cardiaque. Les cellules médullaires à la concentration de 2 x 10^5 cellules mononucléées par ml ont été remises en culture en cinq exemplaires en présence de sérum de porc aplasique pendant une semaine pour tester le nombre de progéniteurs mégacaryocytaires (CFU-MK). Le nombre des mégacaryocytes a été évalué sur des cellules médullaires non cultivées mais ensemencées dans des boîtes de culture après obtention à partir des fémurs. Le nombre de plaquettes, de globules blancs et le taux d'hémoglobine ont été mesurés en utilisant un compteur hématopoiétique automatique. […]
substance,measurement,setting,value
"C-13: peptide constitué par les 13 derniers aminoacides (i.e. 58-70) de l'extrémité C-terminale du pF4 (PLYKKIIKKLLES; Platelet factor 4; UniProt P02776 89-101, looked up, fragment)",effet sur la mégacaryocytopoïèse,[1]; in vitro,aucun effet
same,anti-angiogénèse,[2],propriétés anti-angiogénèse
"C-24: peptide constitué par les 24 derniers aminoacides (i.e. 47-70) de l'extrémité C-terminale du pF4 (NGRKICLDLQAPLYKKIIKKLLES; Platelet factor 4; UniProt P02776 78-101, looked up, fragment)",dose inhibiting mégacaryocytopoièse humaine in vitro,[1]; relatively high dose,~25 µg/mL
same,maturation des cellules HEL,[3],limitent la maturation
same,prolifération des cellules HEL,[3],n'agissent pas sur leur prolifération
"C-41: peptide constitué par les 41 derniers aminoacides (i.e. 30-70) de l'extrémité C-terminale du pF4 (IKAGPHCPTAQLIATLKNGRKICLDLQAPLYKKIIKKLLES; Platelet factor 4; UniProt P02776 61-101, looked up, fragment)",anti-angiogénèse,[2],propriétés anti-angiogénèse
NGRKICLDLEAP [exemple 1],Sang H (hémoglobine),[4],"15,2±0,8 g/100 ml"
same,Sang L (leucocytes),[4],"2,80±0,4 10^3/µl"
